The numbers were not newly measured in patent US20120101165A1, “Urea Compositions With Cooling Effect” (priority 2007, published 2012), which cites them from elsewhere.

Read-outs that look alike come from different tables or passages of the source.

The conditions of data set [1]: 20% urea solution.
For data set [2] the following is noted: endothermic.
Test in data set [3]: not given
This is another data set of the same source.

Take `NC(N)=O` [urea, diaminomethanal]: in data set [1] (after 11 months at room temperature), the pH after storage is listed as 8.8. For the same compound, in data set [1] (initial), the “initial pH” value is on record as “about 7.4”. Moreover, the solubility in water is recorded as 108 g/100 mL (at 20° C.) and 733 g/100 mL (at 100° C.). Besides, the “heat of solution in water” value in data set [2] is “about −57.8 cal/g”. The critical relative humidity result in data set [3] (at 20° C.) is recorded as “about 81%”; in data set [3] (at 30° C.), “about 73%”.
